The text below walks through data of ChEMBL document CHEMBL5543078, “Peptidomimetics as potent dual SARS-CoV-2 cathepsin-L and main protease inhibitors: In silico design, synthesis and pharmacological characterization” (Eur J Med Chem, 2024).

The subject of data set [1] is Human coronavirus OC43. It counts as functional, organism-based.
The test system of data set [2] is SARS-CoV-2. The data set is described as follows: microbe, parasite or virus in culture. The settings on record: Severe acute respiratory syndrome coronavirus 2, Omicron B1.1.529, Vero.
Description: Antiviral activity against SARS-CoV-2 Omicron B1.1.529 infected in African green monkey Vero cells assessed as reduction in virus-induced cytopathic effect incubated for 6 to 7 days by microscopic analysis
The subject of data set [3] is SARS-CoV-2. The data set is described as follows: microbe, parasite or virus in culture. The settings on record: Severe acute respiratory syndrome coronavirus 2, Wuhan/WIV04/2020, Vero.
Description: Antiviral activity against SARS-CoV-2 Wuhan/WIV04/2020 infected in African green monkey Vero cells assessed as reduction in virus-induced cytopathic effect incubated for 6 to 7 days by microscopic analysis
In data set [4] the test system is SARS-CoV-2. The data set is described as follows: microbe, parasite or virus in culture. The settings on record: Severe acute respiratory syndrome coronavirus 2, NVDBB-2220 (Alpha), Vero.
Description: Antiviral activity against SARS-CoV-2 NVDBB-2220 (Alpha) infected in African green monkey Vero cells assessed as reduction in virus-induced cytopathic effect incubated for 6 to 7 days by microscopic analysis
A short description of data set [5]: Cytotoxicity against African green monkey Vero cells assessed as change in cell morphology by measuring minimum cytotoxic concentration by microscopic analysis. It counts as toxicity, cell-based. Conditions: chlorocebus sabaeus.
Data set [6] has as its system SARS-CoV-2. The data set can be described thus: microbe, parasite or virus in culture. The settings on record: Severe acute respiratory syndrome coronavirus 2, 860-J1 (Delta), Vero.
Description: Antiviral activity against SARS-CoV-2 860-J1 (Delta) infected in African green monkey Vero cells assessed as reduction in virus-induced cytopathic effect incubated for 6 to 7 days by microscopic analysis
For data set [7], the target named is Replicase polyprotein 1ab (Severe acute respiratory syndrome coronavirus 2, UniProt P0DTD1). The data set is described as follows: Inhibition of recombinant SARS-CoV-2 main protease using DABCYL-KTSAVLQSGFRKME-EDANS as fluorescent substrate preincubated for 30 mins followed by substrate addition by FRET assay.
Data set [8] deals with Human coronavirus 229E. It counts as functional, organism-based.
Data set [9] can be described thus: Stability in simulated gastric fluid assessed as parent compound remaining incubated upto 120 mins by LC-MS analysis. It counts as ADME. Conditions: read-out: Stability.
A short description of data set [10]: Stability in simulated intestinal fluid assessed as parent compound remaining incubated upto 120 mins by LC-MS analysis. It counts as ADME. Conditions: read-out: Stability.
Data set [11] can be described thus: Metabolic stability in human liver microsomes assessed as half life incubated upto 60 mins in presence of NADPH and UDPGA by LC-MS analysis. It counts as ADME, Microsome. In general terms: Liver microsomes are a subcellular fraction often used to study metabolism.
A short description of data set [12]: Metabolic stability in human liver microsomes assessed as intrinsic clearance incubated upto 60 mins in presence of NADPH by LC-MS analysis. It counts as ADME, Microsome. Conditions: read-out: CLH.
Data set [13] can be described thus: Metabolic stability in human liver microsomes assessed as half life incubated upto 60 mins in presence of NADPH by LC-MS analysis. It counts as ADME, Microsome.

Activity calls are given as the source filed them. The calls are words filed in the database; no cut-off is given here. Non-standard residues stand in square brackets, D forms with d. Residues, ends and D or L forms follow the SMILES beside them. *: point of attachment. AllylGly = C=CC[C@H](N)C(=O)O; NHBn = c1ccc(CN*)cc1; ClAc = O=C(CCl)*

For orientation: EC50 means the midpoint of the concentration-response curve. The IC50 is the concentration that inhibits the measured activity by half. For the compound `C=CC[C@H](NC(=O)CCl)C(=O)N[C@@H](CC=C)C(=O)N[C@H](CNCc1ccccc1)Cc1c[nH]c2ccccc12`, the outcome in data set [1] and in [8] was Active. Moreover, the half-maximal effective concentration (EC50) came out at 15.2 µM in data set [2], 4.29 µM in data set [3], 2.53 µM in data set [4] and 18.1 µM in data set [6]. Also, the MCC in [5] was above 100 µM. Moreover, the 50% inhibitory concentration (IC50) in data set [7] is above 30 µM.

Consider `CC(C)C(=O)OC[C@H]1O[C@@H](n2ccc(NO)nc2=O)[C@H](O)[C@@H]1O` [MOLNUPIRAVIR], for which the EC50 turned out to be 1.22 µM in data set [2], 4.31 µM in [3], 5.44 µM in [4] and 6.04 µM in data set [6]. In addition, in [5], the MCC is above 100 µM.

As for `CC(C)C[C@@H](C(=O)NCC12CC3CC(CC(C3)C1)C2)N(Cc1ccccc1)C(=O)CCl`, the result in data set [1] and in data set [8] was Active. In addition, the EC50 in [2], in [3], in [4] and in data set [6] was above 4 µM in each case. Besides, the MCC in [5] was found to be 19 µM. In [7], the half-maximal inhibitory concentration (IC50) is above 30 µM.

`C=CC(=O)N[C@@H](CC(C)C)C(=O)N[C@@H](Cc1c[nH]c2ccccc12)C(=O)NCc1ccccc1`: the result in data set [1] and in [8] was Active. Besides, the EC50 in data set [2], in data set [3], in data set [4] and in data set [6] was above 100 µM in each case. In addition, the MCC in data set [5] was above 100 µM. The IC50 in data set [7] is above 30 µM.

In the case of `O=C(CS)N[C@@H](Cc1ccccc1)C(=O)N[C@@H](Cc1c[nH]c2ccccc12)C(=O)NCc1ccccc1`, the result in data set [1] and in [8] was Active. The EC50 in [2], in [3], in [4] and in data set [6] was above 100 µM each time. In addition, the MCC in [5] was above 100 µM. In addition, the IC50 in [7] was above 30 µM.

The half-life is the time in which the quantity being followed falls by half. As to `CC(C)C[C@H](NC(=O)CCl)C(=O)N[C@@H](Cc1c[nH]c2ccccc12)C(=O)NCc1ccccc1`, the remaining at 2 h in data set [9] and in data set [10] was above 80% each time. The result in [1] and in [8] was Active. In addition, the concentration giving a half-maximal response (EC50) in data set [2] came to 1.28 µM; in [3], 0.27 µM; in [4], 0.32 µM; in data set [6] it was 1.2 µM. The figures for the half-life in [11] and in data set [13] were 21.1 min and 29.7 min, respectively. In [5], the MCC was above 100 µM. For the same compound, the 50% inhibitory concentration (IC50) in data set [7] was 2.81 µM. Also, the CLint scaled in data set [12] is above 45 mL/min/kg.

In the case of `CC(C)C[C@H](NC(=O)CCl)C(=O)N[C@@H](Cc1ccccc1)C(=O)N[C@@H](Cc1c[nH]c2ccccc12)C(=O)NCc1ccccc1` (ClAc-Leu-Phe-Trp-NHBn), the result in data set [1] and in data set [8] was Active. Besides, the EC50 is above 100 µM in data set [2], 4.81 µM in data set [3], above 20 µM in data set [4] and above 20 µM in data set [6]. In addition, in [5], the MCC is above 100 µM. Also, the IC50 in data set [7] is above 30 µM.

Take `COC(=O)[C@H](CC(C)C)NC(=O)[C@H](Cc1c[nH]c2ccccc12)NC(=O)CCl` (ClAc-Trp-Leu-OMe): the outcome in data set [1] and in data set [8] was Active. Also, the half-maximal effective concentration (EC50) in data set [2] was above 4 µM; in data set [3], above 4 µM; in [4], above 20 µM; in [6], above 20 µM. Moreover, the MCC in data set [5] was determined as 21 µM. The concentration for half-maximal inhibition (IC50) in data set [7] is above 30 µM.

Turning to `CCC(CC)COC(=O)[C@H](C)N[P@](=O)(OC[C@H]1O[C@@](C#N)(c2ccc3c(N)ncnn23)[C@H](O)[C@@H]1O)Oc1ccccc1` [REMDESIVIR], the outcome in data set [1] and in data set [8] was Active. In addition, the EC50 was 0.83 µM in data set [2], 3.74 µM in data set [3], 2.93 µM in data set [4] and 3.74 µM in [6]. In addition, the MCC in data set [5] is above 40 µM.

For the compound `O=C(CCl)N[C@@H](Cc1ccccc1)C(=O)N[C@@H](Cc1c[nH]c2ccccc12)C(=O)NCc1ccccc1` (ClAc-Phe-Trp-NHBn), the remaining at 2 h in data set [9] and in data set [10] was above 80% each time. In addition, the outcome in [1] and in [8] was Active. Moreover, the EC50 in data set [2] turned out to be 1.34 µM; in [3], 0.09 µM; in data set [4] it was 0.68 µM; in [6], 1.3 µM. Also, the figures for the half-life in data set [11] and in data set [13] were 19.6 min and 38.3 min, respectively. Moreover, the MCC in data set [5] is above 100 µM. Also, the IC50 in data set [7] amounted to 0.73 µM. For the same compound, the CLint scaled in data set [12] was above 45 mL/min/kg.

In the case of `CCN(CC)CCCC(C)Nc1ccnc2cc(Cl)ccc12` (stereo not given), the outcome in data set [1] and in data set [8] was Active.

As for `CC(C)C[C@H](NC(=O)CCl)C(=O)N[C@H](Cc1c[nH]c2ccccc12)C(=O)NCc1ccccc1`, the outcome in data set [1] and in [8] was Active. The EC50 in [2] was above 20 µM; in [3] it was 8.71 µM; in data set [4], above 20 µM; in data set [6] it was above 20 µM. For the same compound, in data set [5], the MCC was above 100 µM. The IC50 in [7] was found to be 14.6 µM.

`C=CC[C@H](NC(=O)CCl)C(=O)N[C@@H](Cc1c[nH]c2ccccc12)C(=O)NCCN1CCOCC1`: the outcome in data set [1] and in data set [8] was Active. In addition, the half-maximal effective concentration (EC50) is 13.5 µM in [2], 10.3 µM in [3], 10.7 µM in data set [4] and 29.2 µM in data set [6]. Besides, in data set [5], the MCC was above 100 µM. For the same compound, the IC50 in data set [7] was above 30 µM.

For `O=C(CCl)N[C@@H](Cc1ccc(O)cc1)C(=O)N[C@@H](Cc1c[nH]c2ccccc12)C(=O)NCc1ccccc1` (ClAc-Tyr-Trp-NHBn), the result in data set [1] and in [8] was inactive. Besides, the concentration giving a half-maximal response (EC50) worked out at 5.04 µM in data set [2], 2.37 µM in [3], 3.46 µM in data set [4] and 12.3 µM in [6]. The MCC in data set [5] is above 100 µM. Further, in data set [7], the half-inhibitory concentration (IC50) was found to be 8.35 µM.

Regarding `C=CC[C@H](NC(=O)CCl)C(=O)N[C@@H](Cc1c[nH]c2ccccc12)C(=O)NCc1ccccc1` (ClAc-[AllylGly]-Trp-NHBn), the result in [1] and in data set [8] was Active. Moreover, the EC50 in [2] turned out to be 5.87 µM; in [3] it was 0.49 µM; in data set [4] it was 1.16 µM; in [6], 2.12 µM. In data set [5], the MCC is above 100 µM. Besides, the concentration for half-maximal inhibition (IC50) in data set [7] turned out to be 1.72 µM.

Take `COC(=O)[C@H](CCC(N)=O)NC(=O)[C@H](Cc1c[nH]c2ccccc12)NC(=O)[C@H](CC(C)C)NC(=O)CCl` (ClAc-Leu-Trp-Gln-OMe): the result in [1] and in [8] was Active. Moreover, the EC50 in data set [2], in data set [3], in [4] and in [6] was above 100 µM throughout. Besides, the MCC in data set [5] was above 100 µM. Moreover, the IC50 in data set [7] was above 30 µM.

For the compound `NC(=O)c1ncn([C@@H]2O[C@H](CO)[C@@H](O)[C@H]2O)n1`, the result in data set [1] and in data set [8] was Active.
